Reference: US20260151358A1, “METHODS OF TREATING, AMELIORATING, AND/OR PREVENTING STRESS-RELATED DISORDER” (Yale University, priority 2022, published 2026)
Entries after “also recorded” stand apart in the source; their conditions may differ.

Experiments:
dlPFC function = conditions: published data, Li et al. 1994; cited from earlier work
dlPFC Delay cells = test: Single unit recording with iontophoresis of dlPFC Delay cells in monkeys performing the ODR working memory task; type: in vivo, rhesus macaques; conditions: for PFC neuronal firing (Delay cell firing): FIGS. 9A-9B, monkeys performing a working memory task; for delay-related firing for nonpreferred directions / delay-related firing of dlPFC Delay cells for the neurons' preferred direction / d′ measure of spatial tuning: iontophoresis, vs control, ODR task; for effect on the S-Bay (LTCC agonist)-induced reduction of Delay cell firing: pretreatment
Source text: The physiological contributions of LTCC and β1-AR signaling were examined at the cellular level in rhesus macaques performing the oculomotor delayed response (ODR) spatial working memory task (FIG. 4A) to determine how they influence the neuronal firing needed for working memory and higher cognition. Recordings were made from the caudal principal sulcus (FIG. 4B) using an iontophoretic electrode (FIG. 4C) that allows minute ejection of charged compounds onto the neuron being recorded. The dlPFC contains “Delay cells” that are able to fire across the length of the delay period while the subject is remembering a location (FIG. 4D); this persistent firing is spatially tuned for the neuron's preferred direction, thus representing visual space in working memory. The effects of β1-AR-Cav1.2 signaling on dlPFC “Delay cell” firing were tested using single unit recordings coupled with iontophoresis in adult and aged rhesus monkeys performing the ODR task using repeated measures analyses. Aged monkeys have naturally-occurring calcium dysregulation, and thus are particularly useful for examining agents that reduce calcium signaling. As there are no compounds selective for Cav1.2, these experiments used agents targeting all LTCCs (i.e. Cav1.2 and Cav1.3 in dlPFC).

rhesus monkeys = test: Stress-induced (FG7142) working memory deficits, spatial delayed response task, systemic administration; type: in vivo; conditions: for stress-induced working memory (cognitive) deficits: pretreatment, FG7142-treated animals, delayed response task; for effect of the selected dose alone on working memory performance: without stressor; for stress-induced cognitive deficits: monkeys
Source text: The final experiments examined whether systemic administration of compounds that block β1-AR or LTCCs prevent stress-induced working memory deficits in rhesus monkeys (n=6), as predicted by the physiological data. This experiment used the LTCC blocker, nimodipine, which normalizes dlPFC working memory in human subjects carrying the CACNA1C allele that increases channel expression. The current experiments tested the effects of β1-AR or LTCC blockade on stress-induced working memory deficits in adult monkeys performing the spatial delayed response task in a Wisconsin General Test Apparatus. The anxiogenic inverse benzodiazepine agonist, FG7142, was used as a pharmacological stressor, as it produces a classic stress response including cortisol release in humans and monkeys, yet allows precise dosing to produce a mild response that impairs accuracy without impeding motivation for testing for food rewards. […]; post-hoc comparisons: vehicle+vehicle vs. vehicle+stress, p=0.001; […]; post-hoc comparisons: vehicle+vehicle vs. vehicle+stress, p=0.0009; vehicle+stress vs. nimodipine+stress, p=0.0006).

test animals = test: Working memory (cognition) after β1-AR or β2-AR blockade (FIG. 11); type: in vivo
[1] = target: β3-adrenergic receptor subtype (β3-AR) (Homo sapiens, UniProt P13945); conditions: cited from earlier work
β3-adrenergic receptor subtype (β3-AR), sequence (P13945 whole entry): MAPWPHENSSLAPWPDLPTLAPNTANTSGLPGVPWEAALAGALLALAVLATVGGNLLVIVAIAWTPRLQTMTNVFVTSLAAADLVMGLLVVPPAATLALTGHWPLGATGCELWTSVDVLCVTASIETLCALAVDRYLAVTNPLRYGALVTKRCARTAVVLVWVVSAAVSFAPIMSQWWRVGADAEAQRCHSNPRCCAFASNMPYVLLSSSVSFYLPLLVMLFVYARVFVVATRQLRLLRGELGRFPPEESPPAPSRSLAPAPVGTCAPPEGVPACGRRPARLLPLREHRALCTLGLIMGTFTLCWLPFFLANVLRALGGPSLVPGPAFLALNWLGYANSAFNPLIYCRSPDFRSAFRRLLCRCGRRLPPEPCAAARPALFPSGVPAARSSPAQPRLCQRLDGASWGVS

Structure (SMILES): CC(C)NCC(O)COc1cccc2ccccc12 (racemic) [propranolol, (RS)-1-(1-methylethylamino)-3-(1-naphthyloxy)propan-2-ol]
- effect on dlPFC function (dlPFC function): little effect

Structure (SMILES): O=C(NCCNCC(O)COc1ccc(O)cc1)N1CCOCC1 (racemic) [xamoterol, (RS)—N-(2-{[2-hydroxy-3-(4-hydroxyphenoxy)propyl]amino}ethyl)morpholine-4-carboxamide]
- PFC neuronal firing (Delay cell firing) (dlPFC Delay cells): reduces PFC neuronal firing
- delay-related firing for nonpreferred directions (dlPFC Delay cells): not for nonpreferred directions
- delay-related firing of dlPFC Delay cells for the neurons' preferred direction (dlPFC Delay cells): reduced delay-related firing
- d′ measure of spatial tuning (dlPFC Delay cells): significant reduction

Structure (SMILES): CC[C@H](NC(C)C)[C@H](O)c1ccc(O)c2[nH]c(=O)ccc12 (relative stereo) [procaterol, (±)-(1R,2S)-rel-8-hydroxy-5-[1-hydroxy-2-(isopropylamino)butyl]-quinolin-2 (1H)-one]
- PFC neuronal firing (Delay cell firing) (dlPFC Delay cells): increases delay cell firing

Structure (SMILES): COC(=O)C1=C(C)NC(C)=C([N+](=O)[O-])[C@H]1c1ccccc1C(F)(F)F [(S)-(−)-Bay-K 8644, (−)-methyl 2,6-dimethyl-5-nitro-4 (S)-[2-(trifluoromethyl)phenyl]-1,4-dihydropyridine-3-carboxylate]
- delay-related firing of dlPFC Delay cells for the neurons' preferred direction (dlPFC Delay cells): reduced delay-related firing
- d′ measure of spatial tuning (dlPFC Delay cells): decreased

Structure (SMILES): CNC(=O)c1cc2c(cn1)[nH]c1ccccc12 [FG7142]
- working memory performance compared to vehicle+vehicle control (rhesus monkeys; vehicle pretreatment + pharmacological stressor, n=6): significantly impaired performance

Structure (SMILES): Cc1ccc(OCC(O)C(C)NC(C)C)c2c1CCC2 (centres unmarked) [IC1118551, 3-(isopropylamino)-1-[(7-methyl-4-indanyl)oxy]butan-2-ol]
- cognition (working memory) (test animals; 0.1 mg/kg, FIG. 11, n=1): impaired cognition

Structure (SMILES): c1ccc2c(c1)CCC[C@H]2Nc1nc2ccccc2[nH]1 [NS8593, N-[(1R)-1,2,3,4-tetrahydro-1-naphthalenyl]-1H-benzimidazol-2-amine]
- delay-related firing for nonpreferred directions (dlPFC Delay cells): smaller increase
- delay-related firing of dlPFC Delay cells for the neurons' preferred direction (dlPFC Delay cells): significantly increased delay firing
- d′ measure of spatial tuning (dlPFC Delay cells): significant increase
- effect on the S-Bay (LTCC agonist)-induced reduction of Delay cell firing (dlPFC Delay cells): blocked

Structure (SMILES): CCN(c1ccccc1)c1cc(NC)[n+](C)c(C)n1 [ZD7288, N-ethyl-1,6-dihydro-1,2-dimethyl-6-(methylimino)-N-phenyl-4-pyrimidinamine]
- effect on the S-Bay (LTCC agonist)-induced reduction of Delay cell firing (dlPFC Delay cells): blocked

Structure (SMILES): CC(C)NCC(O)COc1ccc(CCOCC2CC2)cc1 (centres unmarked) [betaxolol, 1-{4-[2-(cyclopropylmethoxy)ethyl]phenoxy}-3-(propan-2-ylamino)propan-2-ol]
- stress-induced working memory (cognitive) deficits (rhesus monkeys): prevented working memory deficits; also recorded: blocked stress-induced cognitive deficits
- effect of the selected dose alone on working memory performance (rhesus monkeys): no effect on their own
- delay-related firing of dlPFC Delay cells for the neurons' preferred direction (dlPFC Delay cells): enhanced delay-related firing
- d′ measure of spatial tuning (dlPFC Delay cells): increased
- pKD value for β3-AR [1]: 5.97±0.08

Structure (SMILES): OC(CNCC(O)C1CCc2cc(F)ccc2O1)C1CCc2cc(F)ccc2O1 (centres unmarked) [nebivolol, 1-(6-fluoro-3,4-dihydro-2H-chromen-2-yl)-2-[[2-(6-fluoro-3,4-dihydro-2H-chromen-2-yl)-2-hydroxyethyl]amino]ethanol]
- stress-induced cognitive deficits (rhesus monkeys; 0.01 mg/kg, FIG. 10B): blocked stress-induced cognitive deficits
- stress-induced cognitive deficits (rhesus monkeys; 0.1 mg/kg, FIG. 10A): blocked stress-induced cognitive deficits
- stress-induced working memory (cognitive) deficits (rhesus monkeys): prevented stress-induced cognitive deficits
- cognition (working memory) (test animals; 1.0 mg/kg, FIG. 11): improved cognition

Structure (SMILES): COCCOC(=O)C1=C(C)NC(C)=C(C(=O)OC(C)C)C1c1cccc([N+](=O)[O-])c1 (centres unmarked) [nimodipine, 3-(2-methoxyethyl) 5-propan-2-yl 2,6-dimethyl-4-(3-nitrophenyl)-1,4-dihydropyridine-3,5-dicarboxylate]
- stress-induced working memory (cognitive) deficits (rhesus monkeys): prevented working memory deficits
- effect of the selected dose alone on working memory performance (rhesus monkeys): no effect on their own
